Patent US7538102B2, “Compounds for the treatment of Hepatitis C” (Bristol-Myers Squibb Company, priority 2007, dated 2009)
Like-named read-outs stand apart in the source and are kept apart here.

Columns and labels:
HCV NS5B = biological target: T1, HCV NS5B (Hepatitis C virus genotype 1b, UniProt Q9WMX2); assay: HCV NS5B RdRp enzyme assay (standard or modified); type: biochemical
T1 construct: The protein was expressed with an 18 amino acid C-terminal truncation to enhance the solubility; made in house; host or cells: E. coli BL21(DE3)
T1 sequence (Q9WMX2 2420-2992): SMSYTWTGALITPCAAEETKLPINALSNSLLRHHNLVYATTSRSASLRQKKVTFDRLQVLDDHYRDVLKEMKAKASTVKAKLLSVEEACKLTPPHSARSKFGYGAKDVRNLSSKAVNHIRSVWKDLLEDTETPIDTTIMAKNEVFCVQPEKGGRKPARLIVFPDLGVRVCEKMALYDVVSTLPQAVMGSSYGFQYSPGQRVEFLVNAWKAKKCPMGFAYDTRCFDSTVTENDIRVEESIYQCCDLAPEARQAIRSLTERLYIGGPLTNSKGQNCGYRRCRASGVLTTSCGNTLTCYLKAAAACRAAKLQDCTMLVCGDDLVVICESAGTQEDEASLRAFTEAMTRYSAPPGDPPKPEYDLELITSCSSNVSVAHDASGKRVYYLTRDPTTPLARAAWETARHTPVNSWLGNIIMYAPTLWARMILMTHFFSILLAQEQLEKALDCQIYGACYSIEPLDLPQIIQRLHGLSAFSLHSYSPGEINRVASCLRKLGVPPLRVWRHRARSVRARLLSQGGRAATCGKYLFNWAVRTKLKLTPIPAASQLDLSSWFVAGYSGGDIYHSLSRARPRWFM
Description: HCV NS5B RdRp cloning, expression, and purification. The cDNA encoding the NS5B protein of HCV, genotype 1b, was cloned into the pET21a expression vector. The protein was expressed with an 18 amino acid C-terminal truncation to enhance the solubility. The E. coli competent cell line BL21(DE3) was used for expression of the protein. Cultures were grown at 37° C. for ˜4 hours until the cultures reached an optical density of 2.0 at 600 nm. The cultures were cooled to 20° C. and induced with 1 mM IPTG. Fresh ampicillin was added to a final concentration of 50 μg/ml and the cells were grown overnight at 20° C.
Cell pellets (3 L) were lysed for purification to yield 15-24 mgs of purified NS5B. The lysis buffer consisted of 20 mM Tris-HCl, pH 7.4, 500 mM NaCl, 0.5% triton X-100, 1 mM DTT, 1mM EDTA, 20% glycerol, 0.5 mg/ml lysozyme, 10 mM MgCl2, 15 ug/ml deoxyribonuclease I, and Complete TM protease inhibitor tablets (Roche). After addition of the lysis buffer, frozen cell pellets were resuspended using a tissue homogenizer. To reduce the viscosity of the sample, aliquots of the lysate were sonicated on ice using a microtip attached to a Branson sonicator. The sonicated lysate was centrifuged at 100,000×g for 1 hr at 4° C. and filtered through a 0.2 μm filter unit (Corning).
The protein was purified using two sequential chromatography steps: Heparin sepharose CL-6B and polyU sepharose 4B (Pharmacia). The chromatography buffers were identical to the lysis buffer but contained no lysozyme, deoxyribonuclease I, MgCl2 or protease inhibitor and the NaCl concentration of the buffer was adjusted according to the requirements for charging the protein onto the column. Each column was eluted with a NaCl gradient which varied in length from 5-50 column volumes depending on the column type. After the final chromatography step, the resulting purity of the enzyme is >90% based on SDS-PAGE analysis. The enzyme was aliquoted and stored at −80° C.
Standard HCV NS5B RdRp enzyme assay. HCV RdRp genotype 1b assays were run in a final volume of 60 μl in 96 well plates (Corning 3600). The assay buffer is composed of 20 mM Hepes, pH 7.5, 2.5 mM KCl, 2.5 mM MgCl2, 1 mM DTT, 1.6 U RNAse inhibitor (Promega N2515), 0.01 mg/ml BSA (Sigma B6917), and 2% glycerol. All compounds were serially diluted (3-fold) in DMSO and diluted further in water such that the final concentration of DMSO in the assay was 2%. HCV RdRp genotype 1b enzyme was used at a final concentration of 28 nM. A polyA template was used at 6 nM, and a biotinylated oligo-dT12 primer was used at 180 nM final concentration. Template was obtained commercially (Amersham 27-4110). Biotinylated primer was prepared by Sigma Genosys. 3H-UTP was used at 0.6 μCi (0.29 μM total UTP). Reactions were initiated by the addition of enzyme, incubated at 30° C. for 60 min, and stopped by adding 25 μl of 50 mM EDTA containing SPA beads (4 μg/pl, Amersham RPNQ 0007). Plates were read on a Packard Top Count NXT after >1 hr incubation at room temperature.
Modified HCV NS5B RdRp enzyme assay. A modified enzyme assay was performed essentially as described for the standard enzyme assay except for the following: The biotinylated oligo dT12 primer was precaptured on streptavidin-coated SPA beads by mixing primer and beads in assay buffer and incubating at room temperature for one hour. Unbound primer was removed after centrifugation. The primer-bound beads were resuspended in 20 mM Hepes buffer, pH 7.5 and used in the assay at final concentrations of 20 nM primer and 0.67 μg/μl beads. Order of addition in the assay: enzyme (1.75 nM) was added to diluted compound followed by the addition of a mixture of template (0.36 nM), 3H-UTP (0.6 μCi, 0.29 μM), and primer-bound beads, to initiate the reaction; concentrations given are final. Reactions were allowed to proceed for 4 hours at 30° C.
IC50 values for compounds were determined using seven different [I]. […]

HCV replicon = HCV replicon FRET / luciferase assay; type: cell-based; conditions: Hepatitis C virus
Description: FRET Assay Preparation. The HCV FRET screening assay was performed in 96-well cell culture plates. The FRET peptide (Anaspec, Inc.) (Taliani et al., Anal. Biochem. 1996, 240, 60-67) contains a fluorescence donor, EDANS, near one end of the peptide and an acceptor, DABCYL, near the other end. The fluorescence of the peptide is quenched by […] resonance energy transfer (RET) between the donor and the acceptor, but as the NS3 protease cleaves the peptide the products are released from RET quenching and the fluorescence of the donor becomes apparent. The assay reagent was made as follows: 5× cell Luciferase cell culture lysis reagent from Promega (#E153A) diluted to 1× with dH2O, NaCl added to 150 mM final, the FRET peptide diluted to 20 μM final from a 2 mM stock.
To prepare plates, HCV replicon cells, with or without a Renilla luciferase reporter gene, were trypsinized and plated in a 96-well plate with titrated test compounds added in columns 3 through 12; columns 1 and 2 contained a control compound (HCV control inhibitor), and the bottom row contained cells with DMSO only. The plates were then placed in a CO2 incubator at 37° C.
Assays. Subsequent to addition of the test compounds described above (FRET Assay Preparation), at various times the plate was removed and Alamar blue solution (Trek Diagnostics, #00-100) was added to measure cellular toxicity. After reading in a Cytoflour 4000 instrument (PE Biosystems), plates were rinsed with PBS and then used for FRET assay by the addition of 30 ul of the FRET peptide assay reagent described above (FRET Assay Preparation) per well. The plate was then placed into the Cytoflour 4000 instrument which had been set to 340 excite/490 emission, automatic mode for up to 20 cycles and the plate read in a kinetic mode. Typically, the signal to noise using an endpoint analysis after the reads was at least three-fold. Alternatively, after Alamar blue reading, plates were rinsed with PBS, then used for luciferase assay using the Promega Dual-Glo Luciferase Assay System or the Promega EnduRen Live Cell Substrate assay.
Compound analysis was performed by quantification of the relative HCV replicon inhibition and the relative cytotoxicity values. To calculate cytoxicity values, the average Alamar Blue fluorescence signals from the control wells were set as 100% non-toxic. The individual signals in each of the compound test wells were then divided by the average control signal and multiplied by 100% to determine […]. To calculate the HCV replicon inhibition values, an average background value was obtained from the two wells containing the highest amount of HCV control inhibitor at the end of the assay period. These numbers were similar to those obtained from naive Huh-7 cells. The background numbers were then subtracted from the average signal obtained from the control wells and this number was used as 100% activity. The individual signals in each of the compound test wells were then divided by the averaged control values after background subtraction and multiplied by 100% to determine percent activity. EC50 values were calculated as the concentration which caused a 50% reduction in FRET or luciferase activity. The two numbers generated for the compound plate, percent cytoxicity and percent activity, were used to determine compounds of interest for further analysis.

[1] = HCV NS5B RdRp genotype 1b, standard or modified enzyme assay not specified, read-out: IC50
[2] = HCV replicon cells, 50% reduction in FRET or luciferase activity, read-out: EC50

Row | Compound | IC50 (HCV NS5B; [1]) [nM] | EC50 (HCV replicon; [2]) [nM] | IC50 (HCV NS5B) [nM] | EC50 (HCV replicon) [nM]
1 | COc1ccc2c(c1)C1CC1(C(=O)N1CCCC1CN1CCCC1)Cn1c-2c(C2CCCCC2)c2ccc(C(=O)NS(=O)(=O)N(C)C)cc21 (centres unmarked) | 3 to 1000 | 3 to 1000 | – | –
2 | COc1ccc2c(c1)C1CC1(C(=O)N1CCCN(Cc3cccnc3)CC1)Cn1c-2c(C2CCCCC2)c2ccc(C(=O)NS(=O)(=O)N3CCC3)cc21 (centres unmarked) | 3 to 1000 | 3 to 1000 | – | –
3 | COc1ccc2c(c1)C1CC1(C(=O)N(C)CC(=O)N1CCOCC1)Cn1c-2c(C2CCCCC2)c2ccc(C(=O)NS(=O)(=O)N(C)C)cc21 (centres unmarked) | 3 to 1000 | 3 to 1000 | – | –
4 | COc1ccc2c(c1)C1CC1(C(=O)N1CCCN(C(C)=O)CC1)Cn1c-2c(C2CCCCC2)c2ccc(C(=O)NS(=O)(=O)N(C)C)cc21 (centres unmarked) | 3 to 1000 | 3 to 1000 | – | –
5 | COc1ccc2c(c1)C1CC1(C(=O)N(C)[C@@H]1CCCC[C@H]1N(C)C)Cn1c-2c(C2CCCCC2)c2ccc(C(=O)NS(=O)(=O)N(C)C)cc21 (some centres unmarked) | 3 to 1000 | 3 to 1000 | – | –
6 | COc1ccc2c(c1)C1CC1(C(=O)N1CCN(c3cnccn3)CC1)Cn1c-2c(C2CCCCC2)c2ccc(C(=O)NS(=O)(=O)C3CC3)cc21 (centres unmarked) | 3 to 1000 | 3 to 1000 | – | –
7 | COc1ccc2c(c1)C1CC1(C(=O)N1CCCN(Cc3cccnc3)CC1)Cn1c-2c(C2CCCCC2)c2ccc(C(=O)NS(=O)(=O)C3CC3)cc21 (centres unmarked) | 3 to 1000 | 3 to 1000 | – | –
8 | COc1ccc2c(c1)C1CC1(C(=O)N(C)C1CCN(C)C1)Cn1c-2c(C2CCCCC2)c2ccc(C(=O)NS(=O)(=O)N(C)C)cc21 (centres unmarked) | 3 to 1000 | 3 to 1000 | – | –
9 | COc1ccc2c(c1)C1CC1(C(=O)N1CCNC(c3cccc(Cl)c3)C1)Cn1c-2c(C2CCCCC2)c2ccc(C(=O)NS(=O)(=O)N(C)C)cc21 (centres unmarked) | 3 to 1000 | 3 to 1000 | – | –
10 | COc1ccc2c(c1)C1CC1(C(=O)N[C@@H]1CC3CCN1CC3)Cn1c-2c(C2CCCCC2)c2ccc(C(=O)NS(=O)(=O)N(C)C)cc21 (some centres unmarked) | – | – | 3 to 1000 | 3 to 1000
11 | COc1ccc2c(c1)C1CC1(C(=O)N1CCNC(=O)CC1)Cn1c-2c(C2CCCCC2)c2ccc(C(=O)NS(=O)(=O)N(C)C)cc21 (centres unmarked) | 3 to 1000 | 3 to 1000 | – | –
12 | COc1ccc2c(c1)C1CC1(C(=O)N1CCN(C)CC1c1ccccc1)Cn1c-2c(C2CCCCC2)c2ccc(C(=O)NS(=O)(=O)N(C)C)cc21 (centres unmarked) [drawing 44] | 3 to 1000 | 3 to 1000 | – | –
13 | COc1ccc2c(c1)C1CC1(C(=O)N1CCCN(C(=O)OC(C)(C)C)CC1)Cn1c-2c(C2CCCCC2)c2ccc(C(=O)NS(C)(=O)=O)cc21 (centres unmarked) | 3 to 1000 | 3 to 1000 | – | –
